Measurements published in PMC7954990 (European journal of medicinal chemistry, 2021).

What was measured:
CDK2/cyclin A [1] = molecular target: T1, CDK2/cyclin A (Homo sapiens, UniProt P24941); assay: CDK2/cyclin A enzyme assay; format: biochemical; details: Tables 1 and 2
CDK complexes = assay: Reaction Biology single-dose kinase profiling of CDK complexes; format: biochemical; details: all tested CDK complexes
MCF-7 cell line = assay: Antiproliferation assay; format: cell-based; details: 72 h, alamarBlue, highest concentration tested
CDK2/cyclin A [2] = molecular target: T1, CDK2/cyclin A; assay: Reaction Biology 33P-ATP filter-binding kinase assay, CDK2/cyclin A; format: biochemical
CDK2 = CDK2 (Homo sapiens, UniProt P24941); assay: DiscoverX kinase binding assay for Kd; details: for better binding affinity for CDK2 compared to screening hit 3: relative to 3
CDK2/cyclin E = CDK2/cyclin E (Homo sapiens, UniProt P24941); assay: Reaction Biology 33P-ATP filter-binding kinase assay, CDK2/cyclin E; format: biochemical
MDCK cell line = assay: MDCK cell permeability assay; format: in vitro ADME; details: 1 μM, 2 h; for Papp (A-B) (10^−6, cm/s): apical to basolateral; for Papp (B-A) (10^−6, cm/s): basolateral to apical
HSP90 = assay: Test against HSP90; details: data not shown

Q: With `Cc1nn(-c2ncccc2C(F)(F)F)c2c1C(=O)CC(C)(C)C2Br` (stereo not shown) [Compound 46, 7-Bromo-3,6,6-trimethyl-1-(3-(trifluoromethyl)pyridin-2-yl)-6,7-dihydro-1H-indazol-4(5H)-one] as the compound, how does the “CDK2/cyclin A inhibitory activity, in words” value (CDK2/cyclin A [1]) read?
A: The value was “low activities”.

Q: For `Cc1nn(-c2ccccn2)c2c1C(=O)CC(C)C2Br` (stereo not drawn) [Compound 18b-cis, 7-Bromo-3,6-dimethyl-1-(pyridin-2-yl)-6,7-dihydro-1H-indazol-4(5H)-one], which “Inhibition of CDK complexes at 1 μM, in words” value (CDK complexes) is on record?
A: Its value is “did not exhibit significant inhibitory activity”.

Q: Which “CDK2/cyclin A inhibitory activity, in words” value (CDK2/cyclin A [1]) does the source give for `Cc1nn(-c2ccccn2)c2c1C(=O)CC(c1ccccc1)C2Br` (stereo not shown) [Compound 18d, 7-Bromo-3-methyl-6-phenyl-1-(pyridin-2-yl)-6,7-dihydro-1H-indazol-4(5H)-one] here?
A: Its value is “inactive”.

Q: `Cc1nn(-c2ccccn2)c2c1NC(=O)CC(C)(C)C2` [Compound 19, 3,7,7-Trimethyl-1-(pyridin-2-yl)-4,6,7,8-tetrahydropyrazolo[4,3-b]azepin-5(1H)-one] was tested. Which “CDK2/cyclin A inhibitory activity, in words” value (CDK2/cyclin A [1]) did it give?
A: The value was “inactive”.

Q: `Cc1nn(-c2ccccn2)c2c1C(=O)NCC(C)(C)C2` [Compound 20, 3,7,7-Trimethyl-1-(pyridin-2-yl)-5,6,7,8-tetrahydropyrazolo[4,3-c]azepin-4(1H)-one] was tested. Which “CDK2/cyclin A inhibitory activity, in words” value (CDK2/cyclin A [1]) did it give?
A: Its value is “inactive”.

Q: Which “CDK2/cyclin A inhibitory activity, in words” value (CDK2/cyclin A [1]) does the source give for `Cc1nn(-c2ncccc2C(F)(F)F)c2c1C(=O)C(Br)C(C)(C)C2` (stereo not shown) [Compound 47, 5-Bromo-3,6,6-trimethyl-1-(3-(trifluoromethyl)pyridin-2-yl)-6,7-dihydro-1H-indazol-4(5H)-one] here?
A: Its value is “low activities”.

Q: How did the “antiproliferative activities against MCF-7 cell line, none up to” value (“antiproliferative activities” for short) (MCF-7 cell line) turn out when `Cc1nn(-c2ccncn2)c2c1C(=O)CC(C)(C)C2Br` (stereo not shown) [Compound 59, 7-Bromo-3,6,6-trimethyl-1-(pyrimidin-4-yl)-6,7-dihydro-1H-indazol-4(5H)-one] was run?
A: Its value is greater than 200 µM.

Q: What about the IC50 (CDK2/cyclin A [2]) of the same compound?
A: The IC50 was 0.12 µM.

Q: What about the “better binding affinity for CDK2 compared to screening hit 3” value (CDK2) of the same compound?
A: The value was 3 fold.

Q: For `Cc1nn(-c2nccs2)c2c1C(=O)CC(C)(C)C2Br` (stereo not shown) [Compound 53, 7-Bromo-3,6,6-trimethyl-1-(thiazol-2-yl)-6,7-dihydro-1H-indazol-4(5H)-one], which “antiproliferative activities” value (MCF-7 cell line) is on record?
A: The value was greater than 200 µM.

Q: What about the IC50 (CDK2/cyclin E) of the same compound?
A: The IC50 was 0.002 µM.

Q: What about the IC50 (CDK2/cyclin A [2]) of the same compound?
A: The IC50 was 0.0619 µM.

Q: What about the “better binding affinity for CDK2 compared to screening hit 3” value (CDK2) of the same compound?
A: Its value is 3 fold.

Q: With `COCCc1ccc(OCC(O)CNC(C)C)cc1` (stereo not shown) [Metoprolol, metoprolol, reference compound] as the compound, how does the “Papp (A-B) (10^−6, cm/s)” value (MDCK cell line) read?
A: Its value is 26.9 10^−6, cm/s.

Q: What about the “Papp (B-A) (10^−6, cm/s)” value (MDCK cell line) of the same compound?
A: Its value is 21.2 10^−6, cm/s.

Q: How did the “CDK2/cyclin A inhibitory activity, in words” value (CDK2/cyclin A [1]) turn out when `Cc1nn(-c2ccccn2)c2c1C(=O)NCC(C)(C)C2Br` (stereo not shown) [Compound 21, 8-Bromo-3,7,7-trimethyl-1-(pyridin-2-yl)-5,6,7,8-tetrahydropyrazolo[4,3-c]azepin-4(1H)-one] was run?
A: Its value is “moderately active”.

Q: Which “CDK2/cyclin A inhibitory activity, in words” value (CDK2/cyclin A [1]) does the source give for `Cc1nn(-c2ccccn2)c2c1/C(=N/O)CC(C)(C)C2Br` (stereo not shown) [Compound 23, 7-Bromo-3,6,6-trimethyl-1-(pyridin-2-yl)-6,7-dihydro-1H-indazol-4(5H)-one Oxime] here?
A: The value was “weak inhibitory activity”.

Q: Which “CDK2/cyclin A inhibitory activity, in words” value (CDK2/cyclin A [1]) does the source give for `Cc1cccnc1-n1nc(C)c2c1CC(C)(C)C(Br)C2=O` (stereo not shown) [Compound 40, 5-Bromo-3,6,6-trimethyl-1-(3-methylpyridin-2-yl)-6,7-dihydro-1H-indazol-4(5H)-one] here?
A: Its value is “low activities”.

Q: With `Cc1nn(-c2ccccn2)c2c1C(O)CC(C)(C)C2Br` (stereo not shown) [Compound 22, 7-Bromo-3,6,6-trimethyl-1-(pyridin-2-yl)-4,5,6,7-tetrahydro-1H-indazol-4-ol] as the compound, how does the “CDK2/cyclin A inhibitory activity, in words” value (CDK2/cyclin A [1]) read?
A: Its value is “weak inhibitory activity”.

Q: How did the “antiproliferative activities” value (MCF-7 cell line) turn out when `Cc1nn(-c2ccccn2)c2c1C(=O)CC(C)(C)C2Br` (stereo not shown) [Compound 3, 7-Bromo-3,6,6-trimethyl-1-(pyridin-2-yl)-6,7-dihydro-1H-indazol-4(5H)-one] was run?
A: The value was greater than 200 µM.

Q: And the IC50 (CDK2/cyclin A [2])?
A: Its IC50 is 0.086 µM.

Q: What about the “Papp (A-B) (10^−6, cm/s)” value (MDCK cell line) of the same compound?
A: Its value is 20.1 10^−6, cm/s.

Q: And the “Papp (B-A) (10^−6, cm/s)” value (MDCK cell line)?
A: The value was 9.52 10^−6, cm/s.

Q: What about the “activity against HSP90” value (HSP90) of the same compound?
A: The value was “did not exhibit any activity”.

Q: And the Kd (CDK2)?
A: The Kd was 15 µM.
